Test results reported in patent US20090069373A1, “Quinoline Acids” (Wyeth, priority 2007, published 2009).

How the values were obtained:
human LXRα = target: T1, human LXRα (Homo sapiens, UniProt Q13133); test: Ligand-binding test procedure for human LXRα (3H T0901317 competition, flash plates); settings: biotinylated hLXRα, tracer 3H T0901317
T1 construct: biotin (biotinylated; biotinylation tag not described); made in house; host or cells: E. coli
T1 sequence (Q13133 1-447): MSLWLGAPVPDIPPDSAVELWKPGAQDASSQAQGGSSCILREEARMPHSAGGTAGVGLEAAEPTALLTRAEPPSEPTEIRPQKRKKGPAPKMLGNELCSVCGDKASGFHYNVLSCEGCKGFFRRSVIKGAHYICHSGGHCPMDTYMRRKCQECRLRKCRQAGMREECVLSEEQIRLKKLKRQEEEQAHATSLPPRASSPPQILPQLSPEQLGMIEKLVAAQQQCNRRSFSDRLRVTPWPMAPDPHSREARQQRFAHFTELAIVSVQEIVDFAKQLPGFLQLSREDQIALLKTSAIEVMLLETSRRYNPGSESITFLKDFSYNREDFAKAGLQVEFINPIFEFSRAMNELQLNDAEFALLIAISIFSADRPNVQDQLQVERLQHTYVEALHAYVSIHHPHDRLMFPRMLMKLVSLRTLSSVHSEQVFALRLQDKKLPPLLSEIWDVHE
How it was run: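 Competition binding of test ligands against 5 nM ³H tracer solution (pre-mix concentration) on biotinylated hLXRα from E. coli extract, captured on streptavidin flash plates (Bmax ~4000 cpm). Ligand dilution series made in DMSO. Incubated overnight at +4 °C; bound radioactivity counted after washing.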

ABCA1 gene = test: Quantitative analysis of ABCA1 gene regulation in THP-1 cells (real-time RT-PCR); format: cell-based, human; settings: differentiated THP-1 cells, ABCA1 mRNA, 18 hrs; for EC50: Homo sapiens; for THP cells ABCA1 Ag. (%): LXR agonist reference at 1.0 uM as positive control
Procedure: Quantitative Analysis of ABCA1 Gene Regulation in THP-1 Cells. […] Materials and Methods Cell culture: The THP-1 monocytic cell line (ATCC # TIB-202) was obtained from American Type Culture Collection (Manassas, Va.) and cultured in RPMI 1640 medium (Gibco, Carlsbad, Calif.) containing 10% FBS, 2 mM L-glutamine, and 55 uM beta-Mercaptoethanol (BME). […] Louis, Mo.) for three days to induce differentiation into adherent macrophages. Differentiated THP-1 cells were treated with test compounds or ligands dissolved in DMSO (Sigma, D-8779) in culture medium lacking phorbal ester. […] L., J. Med. Chem. (2000), 45:1963-1966.). Results of antagonist analysis are expressed as % antagonism and IC50 (in μM).

human LXRβ = target: T2, human LXRβ (Homo sapiens, UniProt P55055); test: Ligand-binding test procedure for human LXRβ (3H T0901317 competition, flash plates); settings: for Binding ratio a/b: IC50 (μM) LXRα binding/IC50 (μM) LXRβ binding; for IC50: biotinylated hLXRβ, tracer 3H T0901317
T2 construct: biotin (biotinylated; biotinylation tag not described); made in house; host or cells: E. coli
T2 sequence (P55055 1-460): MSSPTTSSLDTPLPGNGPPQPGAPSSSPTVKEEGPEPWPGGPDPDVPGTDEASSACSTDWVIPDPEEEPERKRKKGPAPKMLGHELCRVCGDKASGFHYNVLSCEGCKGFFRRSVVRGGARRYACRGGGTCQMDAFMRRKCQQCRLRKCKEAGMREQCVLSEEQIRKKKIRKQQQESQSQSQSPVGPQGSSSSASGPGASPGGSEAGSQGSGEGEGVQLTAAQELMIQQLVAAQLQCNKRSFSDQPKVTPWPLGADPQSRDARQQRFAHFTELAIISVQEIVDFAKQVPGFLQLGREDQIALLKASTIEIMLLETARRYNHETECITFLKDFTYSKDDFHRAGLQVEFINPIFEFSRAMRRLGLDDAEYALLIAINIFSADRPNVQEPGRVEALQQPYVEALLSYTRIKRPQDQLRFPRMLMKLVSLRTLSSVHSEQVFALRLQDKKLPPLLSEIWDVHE

Row | SMILES | IC50 (human LXRα) | EC50 (ABCA1 gene) | Binding ratio a/b (human LXRβ) | IC50 (human LXRβ) | THP cells ABCA1 Ag. (%) (ABCA1 gene)
1 | O=C(O)Cc1cccc2c(NCc3cccc(-c4ccnc5c(C(F)(F)F)cccc45)c3)cccc12 [Example 1, [5-({3-[8-(Trifluoromethyl)quinolin-4-yl]benzyl}amino)-1-naphthyl]acetic acid] | 745 nM | 3760 nM | 48 | 15 nM | 91.15%
2 | O=C(O)Cc1cccc2c(NCc3cncc(-c4c(Cc5ccccc5)cnc5c(C(F)(F)F)cccc45)c3)cccc12 [Example 3, {5-[({5-[3-Benzyl-8-(trifluoromethyl)quinolin-4-yl]pyridin-3-yl}methyl)amino]-1-naphthyl}acetic acid] | 964 nM | 4760 nM | 32 | 30 nM | 69.1%
3 | O=C(O)c1ccc(NCc2cccc(-c3c(Cc4ccccc4)cnc4c(C(F)(F)F)cccc34)c2)c(OC(F)(F)F)c1 [Example 110, 4-({3-[3-benzyl-8-(trifluoromethyl)quinolin-4-yl]benzyl}amino)-3-(trifluoromethoxy)benzoic acid] | 2040 nM |  | 1 | 1580 nM | 
4 | O=C(O)c1ccc(COc2cccc(-c3c(Cc4ccccc4)cnc4c(C(F)(F)F)cccc34)c2)c(Cl)c1 [Example 113, 4-({3-[3-benzyl-8-(trifluoromethyl)quinolin-4-yl]phenoxy}methyl)-3-chlorobenzoic acid] | 1720 nM |  | 1 | 1560 nM | 
5 | Cc1cnc2c(C(F)(F)F)cccc2c1-c1cccc(CNc2cccc(F)c2C(=O)O)c1 [Example 115, 2-fluoro-6-({3-[3-methyl-8-(trifluoromethyl)quinolin-4-yl]benzyl}amino)benzoic acid] | 10700 nM |  | 1 | 10300 nM | 
6 | O=C(O)Cc1cccc2c(OCc3cncc(-c4ccnc5c(C(F)(F)F)cccc45)c3)cccc12 [Example 118, [5-({5-[8-(trifluoromethyl)quinolin-4-yl]pyridin-3-yl}methoxy)-1-naphthyl]acetic acid] | > 1000 nM |  |  | 3740 nM | 
7 | Cc1cnc2c(C(F)(F)F)cccc2c1-c1cncc(CNc2cccc3c(CC(=O)O)cccc23)c1 [Example 119, {5-[({5-[3-methyl-8-(trifluoromethyl)quinolin-4-yl]pyridin-3-yl}methyl)amino]-1-naphthyl}acetic acid] | > 1000 nM |  |  | 7220 nM | 
8 | O=C(O)c1cnc(Oc2cccc(-c3c(Cc4ccccc4)cnc4c(C(F)(F)F)cccc34)c2)cn1 [Example 121, 5-{3-[3-Benzyl-8-(trifluoromethyl)quinolin-4-yl]phenoxy}pyrazine-2-carboxylic acid] | 1710 nM |  | 1 | 2300 nM | 
9 | O=C(O)c1cccc(Oc2cccc(-c3c(Cc4ccccc4)cnc4c(Cl)cccc34)c2)c1 [Example 125, 3-[3-(3-Benzyl-8-chloroquinolin-4-yl)phenoxy]benzoic acid] | 267 nM |  | 1 | 228 nM | 
10 | O=C(O)c1ccc(Cn2ccc3c(-c4c(Cc5ccccc5)cnc5c(C(F)(F)F)cccc45)cccc32)cc1 [Example 127, 4-({4-[3-Benzyl-8-(trifluoromethyl)quinolin-4-yl]-1H-indol-1-yl}methyl)benzoic acid] | 2140 nM |  | 1 | 2460 nM | 
11 | Cc1ccc(C(=O)O)cc1C#Cc1cccc(-c2c(Cc3ccccc3)cnc3c(C(F)(F)F)cccc23)c1 [Example 129, 3-({3-[3-Benzyl-8-(trifluoromethyl)quinolin-4-yl]phenyl}ethynyl)-4-methylbenzoic acid] | 656 nM |  | 1 | 605 nM | 
12 | COc1ccc(C(=O)O)cc1C#Cc1cccc(-c2c(Cc3ccccc3)cnc3c(C(F)(F)F)cccc23)c1 [Example 131, 3-({3-[3-Benzyl-8-(trifluoromethyl)quinolin-4-yl]phenyl}ethynyl)-4-methoxybenzoic acid] | 2630 nM |  | 2 | 1470 nM | 

The next lines start with results.

Row | IC50 (human LXRα) | EC50 (ABCA1 gene) | Binding ratio a/b (human LXRβ) | IC50 (human LXRβ) | SMILES | THP cells ABCA1 Ag. (%) (ABCA1 gene)
13 | 3590 nM |  | 1 | 2730 nM | O=C(O)c1cc2ccccc2cc1OCc1cccc(-c2c(Cc3ccccc3)cnc3c(C(F)(F)F)cccc23)c1 [Example 109, 3-({3-[3-benzyl-8-(trifluoromethyl)quinolin-4-yl]benzyl}oxy)-2-naphthoic acid] | 
14 | 874 nM |  | 1 | 709 nM | O=C(O)c1c(Cl)cccc1NCc1cccc(-c2c(Cc3ccccc3)cnc3c(C(F)(F)F)cccc23)c1 [Example 111, 2-({3-[3-benzyl-8-(trifluoromethyl)quinolin-4-yl]benzyl}amino)-6-chlorobenzoic acid] | 
15 | 517 nM |  | 1 | 464 nM | O=C(O)c1cc(F)ccc1NCc1cccc(-c2c(Cc3ccccc3)cnc3c(C(F)(F)F)cccc23)c1 [Example 112, 2-({3-[3-benzyl-8-(trifluoromethyl)quinolin-4-yl]benzyl}amino)-5-fluorobenzoic acid] | 
16 | 1290 nM |  | 1 | 1190 nM | O=C(O)Cc1ccc2cccc(OCc3cccc(-c4c(Cc5ccccc5)cnc5c(C(F)(F)F)cccc45)c3)c2c1 [Example 114, [8-({3-[3-benzyl-8-(trifluoromethyl)quinolin-4-yl]benzyl}oxy)-2-naphthyl]acetic acid] | 
17 | > 10000 nM |  |  | 15700 nM | O=C(O)Cc1cccc2c(NCc3cncc(-c4ccnc5c(C(F)(F)F)cccc45)c3)cccc12 [Example 116, {5-[({5-[8-(trifluoromethyl)quinolin-4-yl]pyridin-3-yl}methyl)amino]-1-naphthyl}acetic acid] | 
18 | > 1000 nM |  |  | 2520 nM | Cc1cc(NCc2cncc(-c3c(C)cnc4c(C(F)(F)F)cccc34)c2)c(C)cc1CC(=O)O [Example 117, {2,5-dimethyl-4-[({5-[3-methyl-8-(trifluoromethyl)quinolin-4-yl]pyridin-3-yl}methyl)amino]phenyl}acetic acid] | 
19 | > 1000 nM |  |  | > 1000 nM | O=C(O)Cc1ccc(NCc2cncc(-c3ccnc4c(C(F)(F)F)cccc34)c2)cc1 [Example 120, {4-[({5-[8-(trifluoromethyl)quinolin-4-yl]pyridin-3-yl}methyl)amino]phenyl}acetic acid] | 
20 | 1510 nM |  | 2 | 772 nM | O=C(O)c1cc(Br)cc(Oc2cccc(-c3c(Cc4ccccc4)cnc4c(Cl)cccc34)c2)c1 [Example 122, 3-[3-(3-Benzyl-8-chloroquinolin-4-yl)phenoxy]-5-bromobenzoic acid] | 
21 | 723 nM |  | 2 | 481 nM | O=C(O)c1cc(F)cc(Oc2cccc(-c3c(Cc4ccccc4)cnc4c(Cl)cccc34)c2)c1 [Example 123, 3-[3-(3-Benzyl-8-chloroquinolin-4-yl)phenoxy]-5-fluorobenzoic acid] | 
22 | 241 nM |  | 2 | 135 nM | O=C(O)c1cccc(Oc2cccc(-c3c(Cc4ccccc4)cnc4c(C(F)(F)F)cccc34)c2)c1 [Example 126, 3-{3-[3-Benzyl-8-(trifluoromethyl)quinolin-4-yl]phenoxy}benzoic acid] | 
23 | 137 nM |  | 7 | 19 nM | Cc1cc(C(=O)O)ccc1C#Cc1cccc(-c2c(Cc3ccccc3)cnc3c(C(F)(F)F)cccc23)c1 [Example 128, 4-({3-[3-Benzyl-8-(trifluoromethyl)quinolin-4-yl]phenyl}ethynyl)-3-methylbenzoic acid] | 
24 | 1320 nM |  |  | 2380 nM | O=C(O)c1cccc(-c2cccc(-c3c(Cc4ccccc4)cnc4c(C(F)(F)F)cccc34)c2)c1 [Example 130, 3′-[3-Benzyl-8-(trifluoromethyl)quinolin-4-yl]biphenyl-3-carboxylic acid] | 
